# Read-outs that look alike come from different tables or passages of the source.
# Legend:
# [1] = test system: Brd4^BD2 wild-type domain; set-up: method as in PMID 32756710; details: cited from earlier work
# [2] = test system: MV-4-11 cells; test: CellTiter-Glo 2.0 cell viability assay, MV-4-11; type: cell-based, human; details: Homo sapiens, MV4-11
# Procedure: (§1) All cell lines were treated with compounds in duplicate (triplicate for DMSO controls) at a 1× concentration in 0.1% DMSO. The compounds were serially diluted to produce a 7-point, 10-fold titration. The cells were treated with 50:100 μL of compound for a final concentration of 10 μM:10 pM in 0.1% DMSO. At the point of spectrometric analysis, cells were treated with 100 μL of Promega CellTiter-Glo 2.0 Cell Viability Assay reagent. The plates were subjected to an orbital shaker for 2 min to encourage lysis and left for a further 5 min to reach peak luminescence. Luminescence was then recorded on a BMG Labtech PHERAstar luminescence plate reader with recommended settings. Data extracted from this analysis was analyzed with GraphPad Prism (v. 8.2.0, GraphPad) and normalized to the DMSO vehicle control. The EC50 values were derived from these plots.
# [3] = set-up: method as in earlier work; details: mice, cited from earlier work
# [4] = test system: 22RV1 cells; test: CellTiter-Glo 2.0 cell viability assay, 22RV1; type: cell-based, human; details: Homo sapiens; 22RV1, 48 Hours, mean ±S.E.M, N = 2; read-out: pEC50 (cell viability) (converted)
# Procedure: as §1
# [5] = test system: HEK293 cells; test: CellTiter-Glo 2.0 cell viability assay, HEK293; type: cell-based, human; details: Homo sapiens; HEK293, 48 Hours, mean ±S.E.M, N = 3; read-out: pEC50 (cell viability) (converted)
# Procedure: as §1
# [6] = test system: proteome of heterozygous BromoTag-Brd2 HEK293 cells; test: Multiplexed TMT labeling mass spectrometry proteomics; type: cell-based, human; details: 1 μM, 2 h
# Procedure: To do this, we subjected our heterozygous BromoTag-Brd2 HEK293 cell line to a 1 μM treatment of 46, its non-degrading control 52, or vehicle (DMSO) for 2 h prior to harvest. The harvested lysate was then subjected to multiplexed tandem mass tag (TMT) labeling mass spectrometry to enable quantitative and unbiased analysis of protein levels in each condition.
# CRISPR-modified BromoTag-Brd2 HEK293 cells (5 × 10^6) were seeded on a […] 24 h before treatment. The cells were treated with either DMSO, 1 μM AGB1, or 1 μM cis-AGB1. After 2 h of treatment, the cells were washed twice with PBS. The cells were lysed in 150 μL of 100 mM TEAB and 5% (w/v) sodium dodecyl sulfate. The lysate was sonicated for 10 s and then centrifuged at 15,000g for 5 min with the supernatant collected post-centrifugation. The samples were then quantified using a micro-BCA protein assay kit (Thermo Fisher Scientific); 300 μg of each sample was then reduced, alkylated, and then digested using the Strap mini protocol (protifi) as described by the manufacturer (protifi) with some modification. The samples were double-digested with trypsin (1:40) first overnight and then for another 6 h with the same ratio (1:40) in 50 mM TEAB buffer. The peptides were quantified using a quantitative fluorometric peptide assay (Thermo Fisher Scientific). […]
# [7] = test system: BET proteins: Brd2, Brd3, and Brd4; test: Single-concentration western blot screen, BET proteins; type: cell-based, human; details: 1 μM, 6 h
# Procedure: With this initial library in hand, we set out to evaluate the activity and selectivity of our I-BET-based B&H–PROTACs by treating our heterozygous BromoTag-Brd2 HEK293 cells with 1 μM of compounds 15–17 or 1 μM of control compounds MZP-15 (14), MZ1 (1), and cis-MZ1 for 6 h, which is the sufficient time to achieve effective MZ1-induced BET protein degradation (Figure 4A). The cells were harvested, and the subsequent lysate was analyzed via western blot using antibodies against BET proteins: Brd2, Brd3, and Brd4 (Figure 4A).
# All cells were harvested on ice with RIPA lysis and extraction buffer (Thermo Fisher Scientific, 89901) supplemented with protease inhibitor cocktail (Merck, 11697498001) and Benzonase Nuclease (Sigma, E1014) before being stored at −20 °C prior to use. Total protein quantity was determined using the BCA protein assay (#23225, Pierce, Rockford, Illinois). The protein concentration was determined using the BCA assay (Thermo Fisher Scientific, 23225). The samples were then prepared and loaded onto NuPAGE 4–12% bis–tris Midi gels (Thermo Fisher Scientific, WG1403A), followed by the transfer of proteins onto nitrocellulose membranes (EMD Millipore). […] All western blots were analyzed for band intensities using Image Lab from Bio-Rad (LI-COR, Biosciences). The data extracted from these blots were then plotted and analyzed using Prism (v. 8.2.0, GraphPad).
structure (smiles),measurement,setting,value
CC[C@@H](C(=O)OC)[C@@H]1N=C(c2ccc(Cl)cc2)c2c(sc(C)c2C)-n2c(C)nnc21 [ET-JQ1-OMe],binding to the wild-type domain,[1],undetectable binding
Cc1ncsc1-c1ccc(CNC(=O)[C@@H]2C[C@@H](O)CN2C(=O)[C@@H](NC(=O)COCCOCCOCCNC(=O)C[C@@H]2N=C(c3ccc(Cl)cc3)c3c(sc(C)c3C)-n3c(C)nnc32)C(C)(C)C)cc1 [MZ1 (1)],EC50,"[2]; MV-4-11, 24 Hours, mean ±S.E.M, N = 2, read-out: pEC50 (cell viability) (converted)",25.1 nM
same,EC50,"[2]; MV-4-11 cells, read-out: EC50 (cell viability)",~20 nM
same,T1/2,"[3]; IV (5 mg/kg), 5 mg/kg",1.04 h
same,T1/2,[3]; SC (5 mg/kg),2.95 h
same,EC50,[4],5010 nM
"CC[C@@H](C(=O)OCCOCCOCCOCC(=O)N[C@H](C(=O)N1C[C@@H](O)C[C@H]1C(=O)NCc1ccc(-c2scnc2C)cc1)C(C)(C)C)[C@@H]1N=C(c2ccc(Cl)cc2)c2c(sc(C)c2C)-n2c(C)nnc21 [cis-AGB1 (52), (S)-13-((2S,4S)-4-Hydroxy-2-((4-(4-methylthiazol-5-yl)benzyl)carbamoyl)pyrrolidine-1-carbonyl)-14,14-dimethyl-11-oxo-3,6,9-trioxa-12-azapentadecyl (R)-2-((S)-4-(4-chlorophenyl)-2,3,9-trimethyl-6H-thieno[3,2-f][1,2,4]triazolo[4,3-a][1,4]diazepin-6-yl)butanoate]",EC50,[5],> 10000 nM
same,proteins significantly degraded among the 6621 proteins quantified,[6],No significant degradation
"COc1ccc2c(c1)C(c1ccc(Cl)cc1)=NC(CC(=O)NCCOCCOCCOCC(=O)N[C@H](C(=O)N1C[C@H](O)C[C@H]1C(=O)NCc1ccc(-c3scnc3C)cc1)C(C)(C)C)c1nnc(C)n1-2 (stereo partly drawn) [compound 14, (2S,4R)-1-((2S)-2-(tert-Butyl)-17-(6-(4-chlorophenyl)-8-methoxy-1-methyl-4H-benzo[f][1,2,4]triazolo[4,3-a][1,4]diazepin-4-yl)-4,16-dioxo-6,9,12-trioxa-3,15-diazaheptadecanoyl)-4-hydroxy-N-(4-(4-methylthiazol-5-yl)benzyl)pyrrolidine-2-carboxamide]",degradation activity across all the three BET family members relative to 1,[7],significant lower activity

# From PMC8558867, “Development of BromoTag: A “Bump-and-Hole”–PROTAC System to Induce Potent, Rapid, and Selective Degradation of Tagged Target Proteins” (Journal of Medicinal Chemistry, 2021)
